Experimental data taken from US20060252774A1, “Regulation of type 5 adenylyl cyclase for treatment of neurodegenerative and cardiac diseases” (priority 2002, published 2006).

What was measured:
WT and AC5KO mice [1] = test: Locomotor activity test with dopaminergic agonists; assay type: in vivo, mouse; details: subcutaneous, SKF38393 25 or 50 mg/kg, cabergoline 0.2 or 1.0 mg/kg
Method: FIG. 27. Motor dysfunction in ACD-^−/− mice. Rotarod test (A)—Each mouse was placed on a 3.5-cm diameter rod covered with rubber to evaluate rotarod performance (14). Mice were left for 1 minute on the rod for habituation. The rod rotated gradually increasing from 4 to 40 rpm over the course of 5 min and the time that mice could stay on an accelerating rotarod without failing was recorded. Five trials were conducted for each individual 10-25 min apart within the dark phase of the light/dark cycle. Mice that stayed on the rotarod for >300 sec were considered complete responders, and their latencies were recorded as 300 sec. *p<0.05, relative to ^+/+; ^+/−, n=17-20. […] Locomotor activity (B) was assessed using an activity monitor equipped with photocell beams (Columbus Instruments, Ohio, USA). The number of photobeam interruptions in each perpendicular axis was recorded and totaled for 5 min. The behavior of the mice was recorded simultaneously by video camera for later analysis, and their rearing actions were counted (C). *p<0.05, relative to ^+/+, n=15-20. […] The time until it turned completely downward (open bars, Tturn) and the time until it climbed down to the floor (closed bars, TLA) were measured *p<0.01, relative to ^+/+, n=14-17. […]
FIG. 32. […] In rotarod test, the best performance out of five trials in each individual was evaluated. […]

WT and AC5KO mice [2] = test: Rotarod test with dopaminergic agonists; assay type: in vivo, mouse; details: subcutaneous, 0.2 or 1.0 mg/kg
Method: (§1) FIG. 27. Motor dysfunction in ACD-^−/− mice. Rotarod test (A)—Each mouse was placed on a 3.5-cm diameter rod covered with rubber to evaluate rotarod performance (14). Mice were left for 1 minute on the rod for habituation. The rod rotated gradually increasing from 4 to 40 rpm over the course of 5 min and the time that mice could stay on an accelerating rotarod without failing was recorded. Five trials were conducted for each individual 10-25 min apart within the dark phase of the light/dark cycle. Mice that stayed on the rotarod for >300 sec were considered complete responders, and their latencies were recorded as 300 sec. *p<0.05, relative to ^+/+; ^+/−, n=17-20. Activity tests (B and C)—The tests were performed as previously described (14, 15). Mice were put in the darkened testing room 60 minutes for habituation before testing. Locomotor activity (B) was assessed using an activity monitor equipped with photocell beams (Columbus Instruments, Ohio, USA). The number of photobeam interruptions in each perpendicular axis was recorded and totaled for 5 min. The behavior of the mice was recorded simultaneously by video camera for later analysis, and their rearing actions were counted (C). *p<0.05, relative to ^+/+, n=15-20. Pole test (D)—In order to evaluate bradykinesia, pole test was performed (16). In brief, mice were placed head upward on the top of a rough-surfaced pole (8 mm in diameter and 50 cm in height) that was wrapped with gauze to prevent slipping. The time until it turned completely downward (open bars, Tturn) and the time until it climbed down to the floor (closed bars, TLA) were measured *p<0.01, relative to ^+/+, n=14-17. Means±SEM are shown. Homozygous to (ACD^−/−) (closed circles, ^−/−), heterozygous (shaded circles, ^+/−), and wild type (WT) (open circles, ^+/+).
(§2) FIG. 32. Effect of dopaminergic agonists on motor functions Effects of SKF38393 on locomotor activity (A), rotarod test (B), and pole test (C) were compared. […] In rotarod test, the best performance out of five trials in each individual was evaluated. […]

WT and AC5KO mice [3] = test: Pole test with dopaminergic agonists; assay type: in vivo, mouse
Method: as §1, §2

cardiac AC = test: AC assay in heart membrane preparations; assay type: biochemical, mouse; details: 100 μmol/L ISO + 100 μmol/L GTP
Method: FIG. 17: Adrenergic, muscarinic, and Ca^2+-mediated regulation of cardiac AC activity. A, AC activity in vitro. The steady state AC activity was determined as the maximal cAMP production over 15 min. Stimulation was performed at the level of the β-AR (ISO), G-protein (GTPγS) and AC catalytic unit with forskolin (Fsk). *P<0.01, n=5. B, Effects of carbachol on AC activity. AC was preactivated by ISO. AC activity was then determined in the absence and presence of carbachol. Carbachol at 10 μmol/L produced its maximal inhibitory effect. *P<0.01, n−5. C, To investigate the inhibition of AC activity by Ca^2+, we examined cAMP production in membranes from the hearts of WT and AC5KO at increasing Ca^2+ concentrations in the presence of ISO. ISO-stimulated AC activity was inhibited more in WT than in AC5KO. […].
Hearts were dissected from the mice and membrane preparations were prepared as described previously. Protein concentration was measured by the method of Bradford using bovine serum albumin as a standard. AC activity was measured as described previously. AC activity was linear within the incubation time up to 30 min. In order to harvest hearts for tissue cAMP content measurements, mice were allowed to acclimate to the surroundings in the laboratory for an hour before sacrifice. Freshly isolated hearts were briefly immersed in liquid nitrogen. The tissue was homogenized in ice-cold 6% percholic acid, and cAMP was extracted as described before. The concentration of cAMP was determined with an RIA kit (PerkinElmer Life Sciences, Boston, Mass., USA).
Hearts were dissected from the mice, and membrane preparations were prepared as described previously. Protein concentration was measured by the Bradford method using bovine serum albumin as a standard. AC activity was measured as described previously. AC activity was linear within the incubation time up to 30 min. For the study of Ca 2+ inhibition, the membranes were treated first with EGTA to extract the endogenous Ca 2+ prior to the assay. Free Ca 2+ concentrations were obtained with the use of 200 μmol/L EGTA buffers as described previously. The experiments with Ca 2+ inhibition were conducted in the presence of 100 μmol/L isoproterenol (ISO)+100 μmol/L GTP.

L-type Ca2+ channels = test: Whole-cell patch-clamp of Ca2+ channel currents (ICa) in myocytes; assay type: cell-based, mouse
Description: FIG. 22: A, Effects of ISO (1 μmol/L) on ICa in WT and AC5KO myoctyes. Traces show currents recorded from a holding potential of −50 mV to indicated potentials in control before (a) and after application of ISO (1 μmol/L) (b). Peak ICa were normalized to the cell capacitance to give current densities (pA/pF) and were plotted as a function of voltage (c). B, Concentration-dependent effects of ISO on ICa measured in myocytes dialyzed with EGTA or BAPTA, and on Ba^2+ currents with EGTA. The relative increase of peak current amplitude was plotted against ISO concentration. The solid lines were best fit to one-to-one binding model. Data are from 8-30 myocytes.
Whole-cell currents were recorded using patch-clamp techniques. Cell capacitance was measured using voltage ramps of 0.8 V/s from a holding potential of −50 mV. All experiments were performed at room temperature. […] The pipette solution contained (mmol/L): Cs-aspartate, 100; CsCl, 20; MgCl2, 1; MgATP, 2; GTP, 0.5; EGTA, 5 or 1,2-bis (2-aminophenoxy)ethane-N,N,N′,N′-tetraacetic acid (BAPTA), 10 and HEPES, 5 (Ph 7.3). […] Nifedipine (10 μmol/L) was added to block L-type Ca^2+ channel currents. The patch pipette solution contained (mmol/L): potassium aspartate, 110; KCl, 20; MgCl2, 2; ATP, 2; GTP, 0.5; EGTA, 5; HEPES, 5 (pH 7.3).
Ca^2+ influx through L-type Ca^2+ channels is essential for cardiac contractility, thus basic Ca^2+ channel properties were characterized. Peak inward ICa amplitude (with 5 mmol/L EGTA in the pipette solution), normalized relative to cell capacitance (ICa density), was similar in myocytes isolated from AC5KO (7.1±0.3 pA/pF, n=69) and WT (6.7±0.3 pA/pF, n=55). […] In these experiments myocytes were dialyzed with BAPTA, and peak ICa amplitude, as the function of voltage (I-V relationships) before and after exposure to ISO, was determined. In both groups, ISO increased the current amplitude at all test potentials and also shifted the I-V relationships toward more negative potentials.

[4] = test system: WT, hetero and AC5KO mice; test: Rotor-rod test after db-cAMP injection; assay type: in vivo, mouse
Method: FIG. 9: Effects of db-cAMP on rotor-rod test. Tests were performed before (pre), 30 minutes after (post), and 48 hours after (next) the injection of db-cAMP to WT, hetero and AC5KO (n=4-7).
The locomotor activity of intact animals, AC5KO versus WT was examined (FIG. 5). At first glance the animals appeared normal, being neither catatonic nor rigid. […] The mice were studied using a rotor rod test in which mice were placed on a rototating rod and had to make continuous adjustment in balance in order to remain upright. The time that the mice spent on the accelerating rotor rod without falling was measured. The rod increased from 3 rpm to 30 rpm during each 5 min. trial. […] There was no significant difference between WT and Hetero at the 1st through 4th trial. At the 5th trial, there was a small but signiifcant decrease in their performance in Hetero.
Motor function may be improved by the administration of cAMP analogues.

SMILES: C=CCN1C[C@H](C(=O)N(CCCN(C)C)C(=O)NCC)C[C@@H]2c3cccc4[nH]cc(c34)C[C@H]21 [Cabergoline]
- locomotor activity (WT and AC5KO mice [1]): no significant effect on locomotor activity in both WT and AC5KO
- rotarod performance (WT and AC5KO mice [2]; AC5KO): improved rotarod performance selectively in AC5KO
- rotarod performance (WT and AC5KO mice [2]; WT): essentially had no effect on WT
- pole test performance at the lower dose (WT and AC5KO mice [3]; 0.2 mg/kg): dramatic improvement
- pole test performance (WT and AC5KO mice [3]; subcutaneous): improved pole test performance

SMILES: CC(C)NCC(O)c1ccc(O)c(O)c1 (stereo not shown) [ISO, isoproterenol]
- increase of AC activity (cardiac AC; AC5KO heart membranes): 64±4 pmol/15 min/mg
- increase of AC activity (cardiac AC; WT heart membranes): 78±6 pmol/15 min/mg
- maximum response of the Ca2+ channel (relative increase of peak current) (L-type Ca2+ channels; AC5KO myocytes, all three conditions (EGTA, BAPTA, Ba2+)): ~1.5 fold
- maximum response of the Ca2+ channel (relative increase of peak current) (L-type Ca2+ channels; WT myocytes dialyzed with EGTA): ~1.7 fold
- maximum response of the Ca2+ channel (relative increase of peak current) (L-type Ca2+ channels; WT myocytes, BAPTA or Ba2+): ~2.4 fold

SMILES: CCCC(=O)Nc1ncnc2c1ncn2[C@@H]1O[C@@H]2COP(=O)(O)O[C@H]2[C@H]1OC(=O)CCC [db-cAMP]
- improvement of time on the rod ([4]; AC5KO, 30 minutes after injection): two-fold increase
- rotor rod performance 48 hours after injection ([4]; AC5KO, 48 hours after injection): dropped to the basal level
- improvement of time on the rod, increase ([4]; hetero and WT, 30 minutes after injection): 25-30%
